According to BigSolDB 2.1:

Details: in n-hexane

Row | solubility (mole fraction) (293.15 K) | solubility (mole fraction) (298.15 K) | solubility (mole fraction) (303.15 K) | solubility (mole fraction) (310.15 K) | solubility (mole fraction) (315.15 K) | Compound
1 | 6.09e-05 | 7.93e-05 | 0.000101 | 0.000136 | 0.00017 | Clc1ccc(NC2=NCCC3(CCCCC3)S2)cc1
2 | 0.00028 | 0.000326 | 0.000379 | 0.000445 | 0.00052 | Cc1ccc(NC2=NCCC3(CCCCC3)S2)cc1
3 | 2.46e-05 | 3.31e-05 | 4.34e-05 | 6.54e-05 | 8.27e-05 | Brc1ccc(NC2=NCCC3(CCCCC3)S2)cc1
4 | 0.000214 | 0.000272 | 0.000345 | 0.000424 | 0.00057 | FC(F)(F)c1ccc(NC2=NCCC3(CCCCC3)S2)cc1

Second part, the molecule before the results:

Row | Compound | solubility (mole fraction) (293.15 K) | solubility (mole fraction) (298.15 K) | solubility (mole fraction) (303.15 K) | solubility (mole fraction) (310.15 K) | solubility (mole fraction) (315.15 K)
5 | CC(=O)c1ccc(NC2=NCCC3(CCCCC3)S2)cc1 | 1.56e-05 | 1.93e-05 | 2.42e-05 | 3.23e-05 | 3.95e-05
6 | O=C(NC1=NCCC2(CCCCC2)S1)c1ccccc1 | 0.000124 | 0.000153 | 0.000189 | 0.00025 | 0.000295
7 | CCc1ccc(NC2=NCCC3(CCCCC3)S2)cc1 | 0.000365 | 0.000431 | 0.000508 | 0.000617 | 0.000885
8 | CC(C)c1ccc(NC2=NCCC3(CCCCC3)S2)cc1 | 0.000514 | 0.00061 | 0.000742 | 0.000919 | 0.0011
9 | c1ccc(NC2=NCCC3(CCCCC3)S2)cc1 | 0.00115 | 0.0013 | 0.00148 | 0.0019 | 0.00215
10 | COc1ccc(NC2=NCCC3(CCCCC3)S2)cc1 | 0.000149 | 0.000182 | 0.000221 | 0.000295 | 0.000357
11 | Cc1ccc(NC2=NCCC3(CCCCC3)S2)cc1Cl | 8.6e-06 | 1.15e-05 | 1.48e-05 | 2.15e-05 | 2.68e-05
